Data from ChEMBL document CHEMBL1150229, “Serrulatane diterpenes with antimycobacterial activity isolated from the West Indian sea whip Pseudopterogorgia elisabethae” (2001).
Active and inactive are the calls of the source. The rule behind the calls is not given here.

Columns and labels:
[1] = test system: Mycobacterium tuberculosis; assay: Antitubercular activity against Mycobacterium tuberculosis H37Rv at 12.5 ug/ml; format: functional
[2] = test system: Mycobacterium tuberculosis; assay: Antitubercular activity against Mycobacterium tuberculosis H37Rv at 6.25 ug/ml; format: functional
[3] = test system: NCI60; assay: Cytotoxicity against human NCI60 cells; format: functional, cell-based

With CC(C)=CCC[C@H](C)[C@H]1CC[C@H](C)c2ccc(C)cc21 [EROGORGIAENE] the Activity [1] was 96%.

Compound CC(C)=CCC[C@H](C)[C@H]1CC[C@H](C)c2c1cc(C)c1ncoc21 has an Activity [1] of 66%.

In the case of CC(C)=CCC[C@H](C)[C@H]1CC[C@H](C)c2cc(O)c(C)cc21, the Activity [2] is reported as 77% and the Activity [3] is reported as “inactive”.

With CC(C)=C[C@@H]1C[C@H](C)[C@H]2CC[C@H](C)c3c2c1c(C)c1ncoc31 [PSEUDOPTEROXAZOLE] the Activity [1] was 97%.
